# Source: patent US20220265603A1, “HEPATIC FIBROSIS-INHIBITING AGENT AND BROWN FAT CELL-ACTIVATING AGENT CONTAINING TAXIFOLIN” (NATIONAL HOSPITAL ORGANIZATION, priority 2019, published 2022)
# Experiments:
# [1] = Food ingestion experiment: body weight and food intake; format: in vivo, C57BL/6J mice
# Protocol: C57BL/6J mice were used as experimental animals. They were purchased at the age of 7 weeks from CLEA Japan, Inc. and randomly divided into four groups at the age of 8 weeks after 1 week of acclimation as shown in Table 1 below. They were allowed to eat and drink freely, and their food intake and body weight were measured once a week. Fasting blood glucose was measured on the first day of the feeding experiment and once every 4 weeks thereafter (at 4, 8, and 12 weeks after the start of the feeding). At the end of 12 weeks, an intraperitoneal glucose tolerance test (IPGTT) was performed to analyze glucose tolerance. Rectal temperature was also measured at 8 and 12 weeks follow-up (Table 2).
# [2] = Fasting blood glucose and intraperitoneal glucose tolerance test (IPGTT); format: in vivo, C57BL/6J mice; conditions: 12 weeks
# Protocol: (§1) They were allowed to eat and drink freely, and their food intake and body weight were measured once a week. Fasting blood glucose was measured on the first day of the feeding experiment and once every 4 weeks thereafter (at 4, 8, and 12 weeks after the start of the feeding). At the end of 12 weeks, an intraperitoneal glucose tolerance test (IPGTT) was performed to analyze glucose tolerance. Rectal temperature was also measured at 8 and 12 weeks follow-up (Table 2). glucose tolerance: The area under the blood glucose curve (AUC) was calculated from the blood glucose fluctuation curve from fasting blood glucose level to 120 min after ingestion using the trapezoidal formula.
# [3] = Rectal temperature measurement; format: in vivo, C57BL/6J mice; conditions: normal diet+3% taxifolin group
# Protocol: as §1, with “2).” for “2). glucose tolerance: The area under the blood glucose curve (AUC) was calculated from the blood glucose fluctuation curve from fasting blood glucose level to 120 min after ingestion using the trapezoidal formula.”
# UCP1 gene = UCP1 gene expression in brown adipose tissue, real-time RT PCR; format: in vivo, C57BL/6J mice; conditions: high-fat diet+3% taxifolin vs high-fat diet only, 12 weeks
# Description: (§2) (vii) Histological Analysis of the Liver Observation of morphology and fat accumulation: Hematoxylin Eosin (HE) staining Observation of fibrosis: Azan staining, SiriusRed staining, immunohistochemistry (anti-F4/80 antibody) (viii) Analysis of Brown Adipocytes and UCP1 Target tissue: Brown adipose tissue Target: UCP1 gene Means of analysis: real-time RT PCR analysis
# Tissue weight at autopsy = format: in vivo, C57BL/6J mice; conditions: high-fat diet+3% taxifolin vs high-fat diet only, 12 weeks
# Protocol: The last fasting blood glucose was measured 5 days after the day of PGTT, and all blood samples were collected under ether anesthesia, then the mice were euthanized by cervical dislocation, and samples were collected and partially weighed as shown in Table 3 below.
# [4] = Blood concentration and biochemical test; format: in vivo, C57BL/6J mice; conditions: high-fat diet+3% taxifolin vs high-fat diet only, 12 weeks
# Description: insulin concentration: Ultra-sensitive mouse insulin ELISA kit (Morinaga Institute of Biological Science, Inc.) leptin concentration: mouse/rat leptin ELISA kit (Morinaga Institute of Biological Science, Inc.) adiponectin concentration: mouse/rat adiponectin ELISA kit (Otsuka Pharmaceutical Co., Ltd.) Triglyceride: Lab Assay Kit (Wako) TNF-α, IL-1β concentration: ELISA kit (Proteintech) ALT, AST levels: Assay Kit (Funakoshi Co., Ltd.)
# AMPK = experiment: Liver AMPK phosphorylation, Western blotting; format: in vivo, C57BL/6J mice; conditions: 12 weeks
# Description: (§3) AMPK phosphorylation, ACC phosphorylation: Western blotting
# ACC = experiment: Liver ACC phosphorylation, Western blotting; format: in vivo, C57BL/6J mice; conditions: 12 weeks
# Description: as §3
# [5] = system: liver fatty acid synthesis-related genes; experiment: Liver fatty acid synthesis-related gene expression, RT PCR; format: in vivo, C57BL/6J mice; conditions: high-fat diet+3% taxifolin vs high-fat diet only, 12 weeks
# Description: Srebp1c, Lxra, FAS, Scd1, PPARα, Cpt1a gene expression: Real-time Quantitative RT PCR
# [6] = system: fatty acid oxidation-related genes; experiment: Liver fatty acid oxidation-related gene expression, RT PCR; format: in vivo, C57BL/6J mice; conditions: high-fat diet+3% taxifolin vs high-fat diet only, 12 weeks
# lipid peroxidation = experiment: Blood and liver tissue lipid peroxidation (MDA) assay; format: in vivo, C57BL/6J mice; conditions: 12 weeks
# Description: Blood and liver tissue lipid peroxidation: Lipid Peroxidation (MDA) Colorimetric Assay Kit (BioVision, Inc.)
# [7] = system: anti-oxidation enzymes (Mn-SOD, CuZn-SOD, Catalase, GP-x); experiment: Anti-oxidation enzyme gene expression, RT PCR; format: in vivo, C57BL/6J mice; conditions: 12 weeks
# Description: Anti-oxidation enzyme (Mn-SOD, CuZn-SOD, Catalase, GPx) gene expression: Real-time Quantitative RT PCR
# [8] = system: F4/80, TNF-α, IL-1β gene expression; experiment: Liver tissue inflammation index gene expression, RT PCR; format: in vivo, C57BL/6J mice; conditions: high-fat diet+3% taxifolin vs high-fat diet only, 12 weeks
# Description: F4/80, TNF-α, IL-1β gene expression: Real-time Quantitative RT PCR
# [9] = system: P38 MAPK, NF-κB p65, JNK phosphorylation; experiment: Inflammation induction signal pathway activity in liver, Western blotting; format: in vivo, C57BL/6J mice; conditions: high-fat diet+3% taxifolin vs high-fat diet only, 12 weeks
# Description: P38 MAPK phosphorylation, NF-κB p65 phosphorylation, JNK phosphorylation: Western blotting
# [10] = system: αSMA, PAI1, TGF-β1, Type1 collagen gene expression; experiment: Liver fibrosis index gene expression, RT PCR; format: in vivo, C57BL/6J mice; conditions: high-fat diet+3% taxifolin vs high-fat diet only, 12 weeks
# Description: αSMA, PAI1, TGF-β, 1-type Collagen gene expression: Real-time Quantitative RT PCR
# [11] = system: F4/80, αSMA, TGF-β1 protein; experiment: Liver fibrosis index protein amount, Western blotting; format: in vivo, C57BL/6J mice; conditions: 12 weeks
# Description: F4/80, αSMA, TGF-β1 protein amount: Western blotting
# liver tissue = experiment: Histological analysis of the liver (HE, Azan, SiriusRed, anti-F4/80); format: in vivo, C57BL/6J mice; conditions: 12 weeks
# Protocol: as §2, with “Liver samples were partially trimmed for tissue observation, washed, immersed in 4% paraformaldehyde, and fixed at 4° C. overnight. The fixed samples were washed, dehydrated in an ascending ethanol series, and paraffin-embedded. (vii)” for “(vii)”
# [12] = non-patent document 9; cited from earlier work
# [13] = system: acute pancreatitis model mouse; conditions: non-patent document 10; cited from earlier work
# [14] = system: type 1 diabetes model rat; conditions: non-patent document 11; cited from earlier work
# [15] = system: Alzheimer's disease model mouse; conditions: cited from earlier work
# [16] = high-fat diet+3% taxifolin vs high-fat diet only
# [17] = normal diet+3% taxifolin vs normal diet only
# [18] = liver tissue, high-fat diet+3% taxifolin vs high-fat diet only
compound,measurement,setting,value
O=C1c2c(O)cc(O)cc2O[C@H](c2ccc(O)c(O)c2)[C@H]1O [taxifolin],body weight,"[1]; high-fat diet+3% taxifolin vs high-fat diet only, 4 weeks",significant difference
same,body weight,"[1]; normal diet+3% taxifolin group vs all other groups, 8 weeks",significant difference in weight loss
same,body weight,"[1]; normal diet+3% taxifolin group vs other groups, 12 weeks",no weight gain was observed
same,body weight,"[1]; normal diet+3% taxifolin group, 6 weeks",significant difference in weight loss
same,fasting blood glucose (FIG. 6A),[2]; [16],significantly decreased
same,blood glucose area under the curve (AUC),"[2]; high-fat diet+3% taxifolin vs high-fat diet only, IPGTT",significantly decreased
same,blood glucose level at 60 min after start of intraperitoneal glucose tolerance test,[2]; normal diet+3% taxifolin group,significantly lower
same,fasting blood glucose (FIG. 3A),[2]; normal diet+3% taxifolin group,significantly lower
same,fasting blood glucose (FIG. 6A),[2]; [17],significantly decreased
same,rectal temperature,[3]; 8 weeks,significantly higher
same,rectal temperature,[3]; 12 weeks,trend was also observed
same,UCP1 gene expression,UCP1 gene,significantly increased
same,brown adipose tissue weight (BAT weight),Tissue weight at autopsy,significantly decreased
same,epididymal fat weight (EPI WAT weight),Tissue weight at autopsy,significantly decreased
same,liver weight,Tissue weight at autopsy,significantly decreased
same,blood ALT levels,[4],significantly decreased
same,blood insulin concentration,[4],significantly decreased
same,blood leptin concentration,[4],significantly decreased
same,insulin resistance index (HOMA-R),[4],significantly decreased
same,liver triglyceride concentration,[4],significantly decreased
same,blood TNF-α concentration,[4]; P=0.076,tendency to decrease
same,blood triglyceride concentration,[4]; P=0.079,decreasing trend
same,blood IL-1β concentration,[4]; P=0.0932,tendency to decrease
same,AMPK phosphorylation,AMPK; [16],significantly increased
same,AMPK phosphorylation,AMPK; [17],significantly increased
same,ACC phosphorylation,ACC; [16],significantly increased
same,ACC phosphorylation,ACC; [17],significantly increased
same,FAS gene expression,[5],significantly decreased
same,Lxrα gene expression,[5],significantly decreased
same,Scd1 gene expression,[5],significantly decreased
same,Srebp1c gene expression,[5],significantly decreased
same,Cd36 gene expression,[6],significantly decreased
same,concentration of MDA in the liver,lipid peroxidation; [16],significantly decreased
same,concentration of malondialdehyde (MDA) in blood,lipid peroxidation; [16],significantly decreased
same,concentration of MDA in the liver,lipid peroxidation; [17],significantly decreased
same,Catalase gene expression,[7]; [16],significantly decreased
same,CuZn-SOD gene expression,[7]; [16],significantly decreased
same,GP-x gene expression,[7]; [16],significantly decreased
same,Mn-SOD gene expression,[7]; [16],significantly decreased
same,Mn-SOD gene expression,[7]; [17],significantly decreased
same,F4/80 gene expression,[8],significantly decreased
same,IL-1β gene expression,[8],significantly decreased
same,TNF-α gene expression,[8],significantly decreased
same,NF-κB p65 phosphorylation,[9],significantly decreased
same,P38 MAPK phosphorylation,[9]; P=0.1045,decreasing trend
same,c-Jun amino-terminal kinase (JNK) phosphorylation,[9]; P=0.1701,decreasing trend
same,PAI1 gene expression,[10],significantly decreased
same,TGF-β1 gene expression,[10],significantly decreased
same,αSMA gene expression,[10],significantly decreased
same,Collagen 1 gene expression,[10]; P=0.07,decreasing trend
same,F4/80 protein amount,[11]; [16],significantly decreased
same,αSMA protein amount,"[11]; high-fat diet+3% taxifolin vs high-fat diet only, P=0.054",decreasing trend
same,F4/80 protein amount,[11]; [17],decrease was significant
same,TGF-β1 protein amount,[11]; [17],significantly decreased
same,"hepatic crown-like structures (hCLS), anti-F4/80 immunohistochemical staining",liver tissue; high-fat diet+3% taxifolin group vs high-fat diet-only group,hardly observed
same,"fat accumulation in liver, HE staining",liver tissue; [16],markedly reduced
same,"amount of collagen stained blue, Azan staining",liver tissue; [18],reduced
same,"amount of collagen stained red, Sirius Red staining",liver tissue; [18],decreased
same,safety for intake,[12],safe for intake
same,anti-oxidation action,[13],anti-oxidation action
same,blood glucose,[14],blood glucose-improving effects
same,amyloid P coagulation,[15],suppression of amyloid P coagulation
same,brain blood flow,[15],improvement of brain blood flow
same,spatial recognition function in the water maze test,[15],improvement of spatial recognition function
